Experimental data: PubChem BioAssay AID743494 (The Scripps Research Institute Molecular Screening Center, 2014)
Active and inactive are the calls of the source. No rule for the calls is given here.

Tested on: Ga16 counterscreen cells, calcium fluorescence antagonism
Experiment: nonselective Ga16 antagonists, potency, SAR follow-up, counter-screen for TAAR1 agonist project, cell-based, fluorescence, dose response, MedChem round 1 (AID 743494)

Structure (SMILES) | IC50
CC(CN1CCCC1Cc1ccccc1)C(=O)c1ccc2c(c1)OCCO2 (stereo unspecified) | > 29.9 µM (inactive)
O=C(CCN1CCC(c2ccccc2)C1)c1ccccc1 (stereo unspecified) | > 29.9 µM (inactive)
O=C(CCN1CCC(O)(c2ccc(F)cc2)C1)c1ccc2c(c1)OCCO2 (stereo unspecified) | > 29.9 µM (inactive)
O=C(CCN1CCC(O)(c2ccccc2)C1)c1ccc2c(c1)OCCO2 (stereo unspecified) | > 29.9 µM (inactive)
CC(CN1CCC(c2ccccc2)C1)C(=O)c1ccc2c(c1)OCCO2 (stereo unspecified) | > 29.9 µM (inactive)
CC1CN(CCC(=O)c2ccc3c(c2)OCCO3)CC1c1ccccc1 (stereo unspecified) | > 29.9 µM (inactive)
O=C(CCN1C[C@@H](C(=O)O)[C@H](c2ccccc2)C1)NCc1cccs1 | > 29.9 µM (inactive)
Cc1ccc(C(=O)CCN2CCC(c3ccccc3)C2)cc1 (stereo unspecified) | > 29.9 µM (inactive)
O=C(CCN1C[C@@H](C(=O)O)[C@H](c2ccccc2)C1)NC1CCCC1 | > 29.9 µM (inactive)
O=C(CCN1C[C@@H](C(=O)O)[C@H](c2cccc(F)c2)C1)NC1CC1 | > 29.9 µM (inactive)
NC(=O)CCN1C[C@H](c2ccccc2)[C@@H]2[C@H]1C1CCN2CC1 | > 29.9 µM (inactive)
